According to patent publication US11104633B2, “Cancer treatment using compounds that selectively target polyploid cancer cells for disruption” (Chengdu Anticancer Bioscience, Ltd., priority 2017, dated 2021):

Assays:
MM-BRAF cells = assay: Cell death / polyploidy in parental lung cancer cells; assay type: cell-based, mouse
RPE-MYC cells [1] = assay: VX-680-induced cell death in RPE-MYC cells and derivatives; assay type: cell-based
Description: (§1) The p53 function in RPE-Myc cells can be interfered with by either a small molecule inhibitor of p53, PFT-a, (FIG. 1A), or a dominant negative p53 mutant (FIG. 1B). […] In contrast, either of these reagents conferred more than 70% protection against the cytotoxicity elicited by hydroxyurea (FIG. 1A-B), confirming that the p53 function was compromised. The conclusion was that p53 was not required for the apoptosis elicited by VX-680 in cells overexpressing MYC.
Survival signals are often mediated by the Ras-PI3K-Akt pathway. Overexpression of an active Hu-Ras^V12 elicited profound senescence in RPE-MYC cells, prevented generation of stable cell lines expressing Hu-Ras^V12, but were able to generate RPE-MYC cells expressing an active allele of MyrAkt. […] Thus, active signaling from Akt enhanced, rather than blocked, the apoptosis elicited by VX-680. The BCL family antiapoptotic factor Bcl2 is a critical regulator of mitochondrion-dependent apoptotic pathway by inhibiting cytochrome C release from mitochondria, whereas XIAP, the most characterized member of the IAP family, has been known to sequester and inactivate active caspases, proteases responsible for apoptosis. The overexpression of Bcl2 or Bcl-xL provided more than 40% protection against the cytotoxicity of VX-680 six days after administration of VX-680 (see, FIGS. 1C and 2) and that overexpression of XIAP has no effect on the MYC-dependent cytotoxicity (FIG. 1C).
Various RPEMYC derivatives used in this study were generated by stably transfecting human RPEMYC cells with a construct that expresses the gene of interest and selecting with 1 μg/ml of puromycin. Breast cancer cell line MD231MYC/Bcl2 was generated by engineering human MDA-MB-231 to stably express MYC and Bcl2. Lung cancer cell line MM-BRAF was created from mouse lung cancer model initiated by BRAF^V600E. All cell lines were cultured in DMEM supplemented with 10% fetal bovine serum and antibiotics at 5% CO2 and 95% air in a humidified incubator.
(§2) Cell death assays in response to drug treatment were performed 24 h after cells were seeded in 24-well plates. Each experiment was done in triplicate and each experiment was repeated at least twice unless indicated otherwise. Dead cells were identified by the trypan blue exclusion assay. All values are expressed as mean±1 SD of the mean.

RPE-MYC cells [2] = assay: Hydroxyurea cytotoxicity in RPE-Myc cells (p53 function control); assay type: cell-based, human; conditions: p53 inhibition; FIG. 1A
Description: as §1, §2

`COc1cc(Nc2ncc3c(n2)-c2ccc(Cl)cc2C(c2c(F)cccc2OC)=NC3)ccc1C(=O)O` [MLN8237] was tested, and the “effect on lung cancer cells” value (MM-BRAF cells; FIG. 6A legend) was “cytostatic effect” and the induction of polyploidy (MM-BRAF cells; FIG. 6B legend) was “develop polyploidy”.

`Cc1ccc(C(=O)Cn2c3c(sc2=N)CCCC3)cc1` [PFT-a] was tested, and the “protection from VX-680-induced cell death” value (RPE-MYC cells [1]; p53 inhibition, FIG. 1A) was “Neither of these reagents protected” and the “protection against the cytotoxicity elicited by hydroxyurea” value (RPE-MYC cells [2]) was “more than 70%”.

For `Cc1cc(Nc2cc(N3CCN(C)CC3)nc(Sc3ccc(NC(=O)C4CC4)cc3)n2)[nH]n1` [VX-680], the “cell death on exposure” value (MM-BRAF cells; in vitro, FIG. 6A) was “failed to undergo cell death”, the “induction of multinucleation and polyploidy” value (MM-BRAF cells; treatment for 4 days, FIG. 6B) was “all cells became multinucleated and polyploid” and the “effect of overexpression of XIAP on the MYC-dependent cytotoxicity” value (RPE-MYC cells [1]; FIG. 1C) was “no effect”. The “sensitivity to cytotoxicity, cells expressing Myc and active Akt versus Myc alone” value (RPE-MYC cells [1]; RPE cells expressing both Myc and active Akt, FIG. 1C) was “moderately more sensitive” and the “protection against the cytotoxicity by overexpression of Bcl2 or Bcl-xL” value (RPE-MYC cells [1]; six days after administration, FIGS. 1C and 2) was “more than 40%”.
